Data reported in patent US20250195521A1 (Revolution Medicines, Inc., priority 2020, published 2025).
pEC50, pIC50: −log10 of the molar value.

Tests used:
[1] = target: NRAS WT binding to BRAF RBD (Homo sapiens (Human), UniProt P01111+P62937); experiment: Ras-Raf disruption/FRET/MOA assay, NRAS WT; format: biochemical
From the text: (§1) Disruption of B-Raf Ras-binding Domain (BRAF^RBD) Interaction with K-Ras by Compounds of the Invention (also called a FRET assay or an MOA assay)
(§2) Note—The following protocol describes a procedure for monitoring disruption of K-Ras G12C(GMP-PNP) binding to BRAF^RBD by a compound of the invention. This protocol may also be executed substituting other Ras proteins or nucleotides.
(§3) The purpose of this biochemical assay was to measure the ability of test compounds to facilitate ternary complex formation between a nucleotide-loaded K-Ras isoform and Cyclophilin A; the resulting ternary complex disrupts binding to a BRAF^RBD construct, inhibiting K-Ras signaling through a RAF effector. Data is reported as IC50 values.
(§4) In assay buffer containing 25 mM HEPES pH 7.3, 0.002% Tween20, 0.1% BSA, 100 mM NaCl and 5 mM MgCl2, tagless Cyclophilin A, His6-K-Ras-GMPPNP, and GST-BRAF^RBD were combined in a 384-well assay plate at final concentrations of 25 μM, 12.5 nM and 50 nM, respectively. Compound was present in plate wells as a 10-point 3-fold dilution series starting at a final concentration of 30 μM. After incubation at 25° C. for 3 hours, a mixture of Anti-His Eu—W1024 and anti-GST allophycocyanin was then added to assay sample wells at final concentrations of 10 nM and 50 nM, respectively, and the reaction incubated for an additional 1.5 hours. […] Compounds that facilitate disruption of a K-Ras: RAF complex were identified as those eliciting a decrease in the TR-FRET ratio relative to DMSO control wells.

[2] = target: KRAS G13D binding to BRAF RBD (Homo sapiens (Human), UniProt P01116+P62937, G13D); experiment: Ras-Raf disruption/FRET/MOA assay, KRAS G13D; format: biochemical
Outline: (§5)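 TR-FRET ratio drop relative to DMSO wells marks disruption of the Ras–RAF complex, reported as IC50. Compounds promote a Ras(nucleotide)–cyclophilin A ternary complex that blocks BRAF RBD binding; dosing was 10 points, 3-fold, top 30 μM final, 3 h at 25° C before detection.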

[3] = target: NRAS G12C binding to BRAF RBD (Homo sapiens (Human), UniProt P01111+P62937, G12C); experiment: Ras-Raf disruption/FRET/MOA assay, NRAS G12C; format: biochemical
Outline: as §5

[4] = target: NRAS Q61R binding to BRAF RBD (Homo sapiens (Human), UniProt P01111+P62937, Q61R); experiment: Ras-Raf disruption/FRET/MOA assay, NRAS Q61R; format: biochemical
From the text: as §1, §2, §3, §4

[5] = test system: K-Ras G12C (NCI-H358 cells); experiment: Potency assay: pERK in NCI-H358 cells; format: cell-based, human; conditions: Homo sapiens; NCI-H358 cells, 4 hours; read-out: pERK EC50 (H358 KRAS G12C)
Outline: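 Cells plated the day before were exposed for 4 h at 37° C, 5% CO2 to a 10-point, 3-fold DMSO dilution series (10 mM top stock), in duplicate. Phospho-ERK was read by AlphaLISA SureFire Ultra or by In-Cell Western with DRAQ5 DNA stain, and IC50 came from a 4-parameter sigmoidal fit.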

[6] = target: NRAS Q61K binding to BRAF RBD (Homo sapiens (Human), UniProt P01111+P62937, Q61K); experiment: Ras-Raf disruption/FRET/MOA assay, NRAS Q61K; format: biochemical
From the text: as §1, §2, §3, §4

[7] = target: K-Ras G12C(GMP-PNP) binding to BRAF RBD (Homo sapiens (Human), UniProt P01116+P62937, G12C); experiment: Disruption of BRAF RBD interaction with K-Ras (FRET / MOA assay), K-Ras G12C; format: biochemical; conditions: read-out: KRAS G12C FRET IC50
Outline: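 TR-FRET readout: after 3 h compound incubation at 25 °C, anti-His Eu and anti-GST allophycocyanin (10 and 50 nM final) added for a further 1.5 h. Dilution series was 10-point, 3-fold, top 30 μM final. Ras–cyclophilin A ternary complex formation blocks the BRAF RBD interaction; IC50 derived from reduced FRET ratio relative to DMSO.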

[8] = target: KRAS Q61H binding to BRAF RBD (Homo sapiens (Human), UniProt P01116+P62937, Q61H); experiment: Ras-Raf disruption/FRET/MOA assay, KRAS Q61H; format: biochemical
From the text: as §1, §2, §3, §4

NCI-H358 (K-Ras G12C) = experiment: CellTiter-Glo cell viability assay, NCI-H358; format: cell-based, human; conditions: Homo sapiens, NCI-H358, 120 h, 5-day treatment; read-out: H358 Cell Viability assay data (K-Ras G12C, IC50)
Outline: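 Viability read-out was luminescent (CellTiter-Glo) on day 5 of compound exposure in K-Ras G12C NCI-H358 cells. Values were expressed as percent of mean DMSO signal and fitted with a four-parameter logistic curve.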

Sequence of NRAS Q61K binding to BRAF RBD (P01111 whole entry Q61K): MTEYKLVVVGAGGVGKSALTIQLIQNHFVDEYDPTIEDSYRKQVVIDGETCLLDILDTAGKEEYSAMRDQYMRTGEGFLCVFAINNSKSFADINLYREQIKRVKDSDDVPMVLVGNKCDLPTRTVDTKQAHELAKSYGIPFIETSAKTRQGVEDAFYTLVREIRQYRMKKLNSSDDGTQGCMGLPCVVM
Sequence of NRAS Q61K binding to BRAF RBD (P62937 whole entry): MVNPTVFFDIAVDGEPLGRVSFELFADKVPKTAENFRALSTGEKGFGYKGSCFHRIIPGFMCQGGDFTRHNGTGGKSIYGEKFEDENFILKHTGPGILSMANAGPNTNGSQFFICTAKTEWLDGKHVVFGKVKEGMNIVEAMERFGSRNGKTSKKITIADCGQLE
Sequence of KRAS Q61H binding to BRAF RBD (P01116 other isoform, or with tags, fused parts or gaps Q61H): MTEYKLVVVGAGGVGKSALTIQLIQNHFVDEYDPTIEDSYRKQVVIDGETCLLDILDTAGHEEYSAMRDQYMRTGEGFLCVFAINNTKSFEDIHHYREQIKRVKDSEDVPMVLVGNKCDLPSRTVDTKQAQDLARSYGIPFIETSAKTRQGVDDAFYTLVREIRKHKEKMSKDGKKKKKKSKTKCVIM
Sequence of KRAS Q61H binding to BRAF RBD (P62937 whole entry): as the sequence (P62937 whole entry) above
Sequence of NRAS G12C binding to BRAF RBD (P01111 whole entry G12C): as the sequence (P01111 whole entry Q61K) above, with G12C, K61Q counted along it
Sequence of NRAS G12C binding to BRAF RBD (P62937 whole entry): as the sequence (P62937 whole entry) above
Sequence of NRAS WT binding to BRAF RBD (P01111 whole entry, the tested form may be a part): as the sequence (P01111 whole entry Q61K) above, with K61Q counted along it
Sequence of NRAS WT binding to BRAF RBD (P62937 whole entry, the tested form may be a part): as the sequence (P62937 whole entry) above
Sequence of KRAS G13D binding to BRAF RBD (P01116 other isoform, or with tags, fused parts or gaps G13D): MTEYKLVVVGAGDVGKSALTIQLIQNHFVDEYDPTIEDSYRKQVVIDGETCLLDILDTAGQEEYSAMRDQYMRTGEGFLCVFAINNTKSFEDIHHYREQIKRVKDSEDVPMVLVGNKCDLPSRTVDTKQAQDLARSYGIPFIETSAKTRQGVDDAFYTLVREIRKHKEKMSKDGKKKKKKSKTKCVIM
Sequence of KRAS G13D binding to BRAF RBD (P62937 whole entry): as the sequence (P62937 whole entry) above
Sequence of K-Ras G12C(GMP-PNP) binding to BRAF RBD (P01116 other isoform, or with tags, fused parts or gaps G12C): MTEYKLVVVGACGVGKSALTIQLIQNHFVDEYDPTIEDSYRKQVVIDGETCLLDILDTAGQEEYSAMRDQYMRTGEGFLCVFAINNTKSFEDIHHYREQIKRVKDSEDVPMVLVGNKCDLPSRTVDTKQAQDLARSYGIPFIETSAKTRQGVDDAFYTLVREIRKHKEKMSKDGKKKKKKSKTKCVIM
Sequence of K-Ras G12C(GMP-PNP) binding to BRAF RBD (P62937 whole entry): as the sequence (P62937 whole entry) above
Sequence of NRAS Q61R binding to BRAF RBD (P01111 whole entry Q61R): as the sequence (P01111 whole entry Q61K) above, with K61R counted along it
Sequence of NRAS Q61R binding to BRAF RBD (P62937 whole entry): as the sequence (P62937 whole entry) above

Structure (SMILES)	pIC50 [1]	pIC50 [2]	pIC50 [3]	pIC50 [4]	pEC50 [5]	pIC50 [6]	pIC50 [7]	pIC50 [8]	pIC50 (NCI-H358 (K-Ras G12C))
C=CC(=O)N1CC[C@H](C(=O)N(C)[C@H](C(=O)N[C@H]2Cc3cccc(c3)-c3ccc4c(c3)c(c(-c3cccnc3[C@H](C)OC)n4CC)CC(C)(C)COC(=O)[C@@H]3CCCN(N3)C2=O)[C@H](C)C(F)(F)F)C1 (atropisomer, axis not shown) [Compound A641]	5.00 to 6.00	5.00 to 6.00	6.00 to 7.00	5.00 to 6.00	> 5.30	5.00 to 6.00	6.00 to 7.00	5.00 to 6.00	7.00 to 8.00
CCn1c(-c2cccnc2[C@H](C)OC)c2c3cc(ccc31)-c1csc(n1)C[C@H](NC(=O)C1(COC3CN(C(=O)C#CC(C)(C)N4CCC4)C3)CC1)C(=O)N1CCC[C@H](N1)C(=O)OCC(C)(C)C2 [Compound A362]	5.00 to 6.00	< 5.00	7.00 to 8.00	< 5.00		< 5.00	7.00 to 8.00	5.00 to 6.00	7.00 to 8.00
C=CC(=O)C1CC[C@H](C(=O)N(C)[C@H](C(=O)N[C@H]2Cc3cccc(c3)-c3ccc4c(c3)c(c(-c3cccnc3[C@H](C)OC)n4CC)CC(C)(C)COC(=O)[C@@H]3CCCN(N3)C2=O)C(C)(C)F)C1 (stereo partly shown) [Compound A693]	5.00 to 6.00	5.00 to 6.00	6.00 to 7.00	5.00 to 6.00	> 5.30	5.00 to 6.00	6.00 to 7.00	5.00 to 6.00	6.00 to 7.00
CCn1c(-c2cccnc2[C@H](C)OC)c2c3cc(ccc31)-c1cccc(c1)C[C@H](NC(=O)[C@H](C(C)C)N1CC[C@]3(CCN(C(=O)C#CC(C)(C)N4CCC4)C3)C1=O)C(=O)N1CCC[C@H](N1)C(=O)OCC(C)(C)C2 [Compound A365]	5.00 to 6.00	5.00 to 6.00	> 8.00	5.00 to 6.00		5.00 to 6.00	> 8.00	6.00 to 7.00	> 8.00
CCn1c(-c2cccnc2[C@H](C)OC)c2c3cc(ccc31)-c1cnc(o1)C[C@H](NC(=O)[C@@H](COC1CN(C(=O)C#CC(C)(C)N(C)C)C1)C(C)C)C(=O)N1CCC[C@H](N1)C(=O)OCCC2 (atropisomer, axis not shown) [Compound A649]	< 5.00	< 5.00	7.00 to 8.00	< 5.00	> 5.30	< 5.00	7.00 to 8.00	< 5.00	7.00 to 8.00

Further lines, results first:

pIC50 [1]	pIC50 [2]	pIC50 [3]	pIC50 [4]	pEC50 [5]	pIC50 [6]	pIC50 [7]	pIC50 [8]	pIC50 (NCI-H358 (K-Ras G12C))	Structure (SMILES)
5.00 to 6.00	5.00 to 6.00	7.00 to 8.00	< 5.00	> 5.30	< 5.00	> 8.00	5.00 to 6.00	> 8.00	CCn1c(-c2cccnc2[C@H](C)OC)c2c3cc(ccc31)N1CCO[C@@H](C[C@H](NC(=O)[C@H](C(C)C)N(C)C(=O)[C@@]3(F)CCN(C(=O)C#CC(C)(C)N4CCC4)C3)C(=O)N3CCC[C@H](N3)C(=O)OCC(C)(C)C2)C1 [Compound A726]
6.00 to 7.00	5.00 to 6.00	> 8.00	5.00 to 6.00	> 5.30	6.00 to 7.00	> 8.00	6.00 to 7.00	> 8.00	CC[C@H](COC1CN(C(=O)C#CC(C)(C)N(C)C)C1)C(=O)N[C@H]1Cc2nc(cs2)-c2ccc3c(c2)c(c(-c2cccnc2[C@H](C)OC)n3CC)CC(C)(C)COC(=O)[C@@H]2CCCN(N2)C1=O (atropisomer, axis not shown) [Compound A660]
7.00 to 8.00	6.00 to 7.00	7.00 to 8.00	6.00 to 7.00	> 5.30	7.00 to 8.00	7.00 to 8.00	7.00 to 8.00	7.00 to 8.00	CCn1c(-c2cccnc2[C@H](C)OC)c2c3cc(ccc31)-c1csc(n1)C[C@H](NC(=O)[C@H](C(C)C)N(C)C(=O)C1CCN(C(=O)/C=C/CN(C)C)C[C@@H]1C)C(=O)N1CCC[C@H](N1)C(=O)OCC(C)(C)C2 (stereo partly shown) [Compound A709]
6.00 to 7.00	5.00 to 6.00	6.00 to 7.00	5.00 to 6.00	> 5.30	5.00 to 6.00	6.00 to 7.00	7.00 to 8.00	6.00 to 7.00	C=CC(=O)N1CC[C@]2(C1)OCN([C@H](C(=O)N[C@H]1Cc3cc(cc(C(F)(F)F)c3)-c3ccc4c(c3)c(c(-c3cccnc3[C@H](C)OC)n4CC)CC(C)(C)COC(=O)[C@@H]3CCCN(N3)C1=O)C(C)C)C2=O [Compound A557]
6.00 to 7.00	6.00 to 7.00	7.00 to 8.00	6.00 to 7.00	> 5.30	7.00 to 8.00	7.00 to 8.00	7.00 to 8.00	7.00 to 8.00	CCn1c(-c2cccnc2[C@H](C)OC)c2c3cc(ccc31)-c1csc(n1)C[C@H](NC(=O)[C@H](C(C)C)N(C)C(=O)C1CCN(C(=O)/C=C/CN(C)C)C3(CC3)C1)C(=O)N1CCC[C@H](N1)C(=O)OCC(C)(C)C2 (stereo partly shown) [Compound A701]
6.00 to 7.00	5.00 to 6.00	6.00 to 7.00	6.00 to 7.00	> 5.30	6.00 to 7.00	6.00 to 7.00	6.00 to 7.00	6.00 to 7.00	C=CC(=O)N(C)CCN1CCN(C(=O)N(C)[C@H](C(=O)N[C@H]2CN3CCC=C(C3)c3ccc4c(c3)c(c(-c3cccnc3[C@H](C)OC)n4CC)CC(C)(C)COC(=O)[C@@H]3CCCN(N3)C2=O)C(C)C)C[C@@H]1C [Compound A570]
